Results taken from publication PMC4015918, “Conjugation to a SMAC mimetic potentiates sigma-2 ligand induced tumor cell death in ovarian cancer” (Molecular Cancer, 2014).

Assays:
SKOV3-Luc xenografts = experiment: Intraperitoneal SKOV3-Luc xenograft model of ovarian cancer (bioluminescence imaging, survival); format: in vivo, SCID mice; conditions: for Tumor response by bioluminescence signal intensity during treatment: start 7 days after inoculation, first week onward; for Median survival: daily i.p. for 3 weeks, 10 mice per group followed, vehicle 74 days
Text: Figure 6 SW IV-134 is a potent single-agent cancer drug in a peritoneal mouse xenograft model of ovarian cancer. (A) Female SCID mice were inoculated intraperitoneally with 5 × 10^6 SKOV3-Luc cells. Treatment was initiated with intraperitoneal injections of SW43, SW IV-134, or vehicle control 7 days after tumor cell inoculation, and continued for a total of 3 weeks. Mice were imaged once a week during the treatment period. Change in bioluminescence photon flux during treatment in each experimental arm (n = 15) was evaluated. Bioluminescent signals at each time point were averaged per treatment group (mean ± SEM). Significant differences were noted between vehicle vs. SW IV-134 and SW43 vs. SW IV-134 (p < 0.0097, one-way ANOVA). (B) Bioluminescent images at the end of the treatment (day 21) of one representative mouse per treatment arm (n = 15). […] (C) Kaplan-Meier survival analysis. At the end of the 3 week treatment, 5 mice from each experimental group were subjected to necropsy. The remaining 10 mice from each treatment group were followed until death to examine overall survival (p < 0.0108, Log-rank test).
All studies were performed in accordance with an animal protocol approved by the Washington University Institutional Animal Care Facility. Female severe combined immunodeficient mice (SCID) were purchased from Taconic Farms (Hudson, NY) at age 6 weeks. SKOV3-Luc cells (5 × 10^6) were inoculated intraperitoneally and mice were randomized 7 days later into one of the three treatment groups according to their baseline luciferase activity employing bioluminescence imaging (BLI). For bioluminescence imaging, mice were injected intraperitoneally with 150 μg/g D-luciferin (Biosynth, Naperville, IL) in PBS, anesthetized with 2.5% isoflurane, and imaged with a charge-coupled device (CCD) camera-based bioluminescence imaging system (IVIS 100; Caliper, Hopkinton, MA; exposure time 300 seconds, binning 16, field of view 12, f/stop 1, open filter).
In vivo experiments were conducted with 15 mice per treatment group. Treatment involved daily intraperitoneal injections with 90 μL of SW43 (7.5 mM stock), SW IV-134 (7.5 mM stock), or vehicle-only (25% cremophor in H2O) for 3 weeks. Tumor burden was monitored by bioluminescence imaging once a week during the treatment period. At the end of the treatment, 5 mice were randomly removed per treatment group and submitted for necropsy to the Washington University Department of Comparative Medicine. Blood samples were collected by intracardiac withdrawal prior to necropsy for chemistry and hematology work-up. In addition, various key organs were harvested for gross and histopathological examination. The remaining 10 mice from each treatment group were followed over time to examine overall survival. For survival studies, actual death or poor physical condition/large tumor size meeting criteria for euthanasia, constituted a death event.

sigma-1 receptor = biological target: T1, sigma-1 receptor (Cavia porcellus, UniProt Q60492); experiment: Sigma-1 receptor binding, [3H](+)-pentazocine displacement in guinea pig brain membrane homogenates; conditions: inhibiting binding of [3H](+)-pentazocine to guinea pig brain homogenates; mean ± S.E.M., at least three experiments
T1 construct: guinea pig brain (sigma-1 assay) or rat liver (sigma-2 assay) membrane homogenates; from tissue; host or cells: guinea pig brain membrane homogenate
T1 sequence (Q60492 whole entry): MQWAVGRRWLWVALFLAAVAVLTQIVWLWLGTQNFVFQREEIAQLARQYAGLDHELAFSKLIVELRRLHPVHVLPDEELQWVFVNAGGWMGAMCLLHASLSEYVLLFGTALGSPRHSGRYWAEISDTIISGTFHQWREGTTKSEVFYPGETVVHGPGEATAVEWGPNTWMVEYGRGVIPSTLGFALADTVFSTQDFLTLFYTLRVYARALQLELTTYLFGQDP
Description: The sigma-1 and sigma-2 receptor binding affinities of SW IV-134 were determined as previously described. Briefly, guinea pig brain (sigma-1 assay) or rat liver (sigma-2 assay) membrane homogenates (~300 μg protein) were diluted with 50 mM Tris-HCl, pH 8.0 and incubated with the radioligand {~5 nM [^3H](+)-pentazocine (34.9 Ci/mmol; sigma-1 assay) or ~5 nM [3H](+)-DTG (58.1 Ci/mmol; sigma-2 assay)} and SW IV-134 with concentrations ranging from 0.1 nM to 10 μM in a total volume of 150 μL in 96-well plates at 25°C. […] Each filter was washed three times with 200 μL of ice-cold wash buffer, and the bound radioactivity quantified using a Wallac 1450 MicroBeta liquid scintillation counter (Perkin Elmer, Boston, MA). Nonspecific binding was determined in the presence of 10 μM cold haloperidol. […]
Table S1. […] The sigma-1 and sigma-2 receptor binding affinities of S W I V-134 were determined as previously described (22). For details see also the Materials and Methods section. a Mean ± S .E .M .K i values were determined by at least three ex periments. b Ki for inhibiting the binding of [ 3H] […]

SKOV3 cells = experiment: Blocking study: competition with uptake of fluorescent sigma-2 ligand SW120, flow cytometry; format: cell-based; conditions: SKOV3 cells pretreated 30 min with increasing concentrations, then 10 nM SW120 for 30 min
Description: Figure 1 Compound structures and cell binding characteristics of SW IV-134. (A) The chemical structures of sigma-2 ligand SW43, the SMAC peptidomimetic SW IV-52, and the chemical conjugate SW IV-134. Note that the chirality of SW IV-52 is fully retained in the drug conjugate (asterisks). […] SKOV3 cells were pretreated with increasing concentration of SW IV-134, followed by incubation with SW120, prior to analysis by flow cytometry.
SKOV3 cells (3 × 10^4/well) were seeded into 6 cm plates for 24 hours before treatment. The cells were incubated with 5, 10, 50, and 100 μM doses of SW IV-134 for 30 minutes at 37°C. After this step, 10 nM SW120 was added to the cell culture medium containing SW IV-134. After 30 minute incubation at 37°C, cells were washed twice with phosphate buffered saline (PBS) and harvested with 0.05% trypsin EDTA (Life Technologies, Grand Island, NY). The cells were centrifuged at 1000 × g for 5 minutes and pellets washed twice with PBS. Internalization of SW120 was determined by flow cytometer (FACSCalibur, BD Biosciences, San Jose, CA).
Supplementary file 1476-4598-13-50-S2.pdf: Additional file 2: Figure S1 Receptor binding characteristics of the individual components of SW IV-134. SKOV3 cells were pretreated with increasing concentration of (A) SW43 and (B) SW IV-52, followed by incubation with SW120, prior to analysis by flow cytometry. […] Click here for file

[1] = daily i.p. 90 μL of 7.5 mM stock

Row | Compound | Bioluminescence signal intensity at the end of the 3 week treatment (SKOV3-Luc xenografts; daily i.p. 90 μL of 7.5 mM stock, day 21) | Tumor response by bioluminescence signal intensity during treatment (SKOV3-Luc xenografts; [1]) | Median survival (SKOV3-Luc xenografts) [days] | Extension of median survival (SKOV3-Luc xenografts; intraperitoneal metastatic model) [days] | Ki (sigma-1 receptor) [nM] | Blocking of SW120 uptake (SKOV3 cells)
1 | COc1ccc(C)cc1NC(=O)OC1CC2CCCC(C1)N2CCCCCCCCCCN[C@@H](C)C(=O)N[C@H](C(=O)N1CCC[C@H]1C(=O)N[C@@H]1CCCc2ccccc21)C(C)(C)C (stereo partly shown) [SW IV-134] | significantly lower than both the SW43 and the vehicle-only treatment groups | Tumor regression was evident by the end of the first week of treatment | 86.5 | 10 | 5740 ± 476 | dose-dependent reduction of SW120 signal intensity
2 | COc1ccc(C)cc1NC(=O)OC1CC2CCCC(C1)N2CCCCCCCCCCN (stereo not shown) [SW43, reference compound] |  | signal intensity increased | 76.5 |  | 134 ± 11.9 | prevents uptake of the fluorescently labeled sigma-2 ligand SW120 in a dose-dependent fashion
